Experiments:
[1] = system: β-gal antigen-specific IgG isotypes; assay: β-gal-specific IgG isotypes in sera of immunized mice (isotype ELISA); type: in vivo; details: after intranasal and after parenteral administration
Procedure: FIG. 8: FIG. 8 provides the analysis of beta-Gal specific IgG isotypes in sera of immunized mice. Anti-beta-Gal specific IgG isotypes of the groups immunized with PBS, (control) beta-Gal+either BPPcysGlyc4armPEG or BPPcysPEG (FIG. 8A) or BPPcysAda or Ada alone (FIG. 8B), or beta-Gal alone of mice immunized by the i.n. or s.c. route were determined by ELISA. Results are expressed as end point titers. IgG titers represent the mean of five animals per experimental group. Differences were statistically significant at p<0.05 (*) with respect to mice receiving antigen alone. One representative out of four independent experiments is shown. SEM is indicated by vertical lines.
Isotyp ELISA: 96-well Nunc-Immuno MaxiSorp assay plates (Nunc, Roskilde, Denmark) were coated with 100 μl of β-gal (Boehringer, Mannheim, Germany) at 5 μg/ml in 0.05 M carbonate buffer (pH 8.2) per well. Serial two-fold dilutions of sera or lavages in PBS with 1% BSA and 0.05% Tween 20 were added (100 μl/well), and plates incubated for 2 h at 37° C. After washing, biotin-conjugated rat anti-mouse IgG1 or IgG2a (Pharmingen, Hamburg, Germany) were added to determine IgG subclasses. Plates were incubated for an additional 1 h at 37° C. After four washes, 100 μl of peroxidase-conjugated streptavidin (Pharmingen) was added to cells and plates incubated at 37° C. for 30 min. After four washes, reactions were developed with ABTS in 0.1 M citrate-phosphate buffer (pH 4.35) containing 0.01% H2O2. To determine the concentration of IgG subclasses in serum, standard curves were obtained by coating the wells with an isotype-specific goat anti-mouse IgG, and then by incubating with purified mouse IgG1 or IgG2a antibodies (Dianova, Hamburg, Germany).

[2] = system: primary bone marrow-derived dendritic cells; assay: In vitro stimulation of primary bone marrow-derived murine dendritic cells, surface markers by flow cytometry; type: cell-based, BALB/c mice; details: concentration enhanced to 100 ng/ml (not shown)
Procedure: FIG. 1: FIGS. 1A-1C show the results for In vitro studies using primary dendritic cells. Primary bone marrow-derived dendritic cell cultures were obtained from BALB/c mice by in vitro maturation of precursors using recombinant GM-CSF (5×10^4 U/ml). Mature dendritic cells were stimulated with 10 ng/ml of E. coli lypopolysaccharide (LPS) or 50 and 100 ng/ml of BPPcysGlyc4armPEG and BPPcysAda, respectively. Then, cells were double-labeled with antibodies specific for CD11c (dendritic cell marker) in combination with anti-CD40, anti-CD54, anti-CD80, anti-CD86, anti-MHC class 1, or anti-MHC class 11 antibodies. The expression of CD40, CD80, CD54, CD86, anti-MHC class 1, and MHC class 11 in CD11c-gated cells were analyzed by flow cytometry.
Experimental protocol: primary bone marrow-derived dendritic cell cultures were obtained from BALB/c mice following in vitro maturation of precursors in the presence of recombinant GM-CSF (5×10^4 U/ml), according to established protocols. Mature dendritic cells were stimulated with 10 ng/ml of E. coli lypopolysaccharide (LPS) or 5 ng/ml of BPPcysGlyc4armPEG, after 12, 24 and/or 48 h stimulation cells were analyzed by flow cytometry to assess the expression of surface markers which are relevant for their antigen presentation capacity.
In order to identify compounds which may have potential as adjuvants for in vivo applications in the vaccinology field, a first in vitro screening based on the used of primary cultures of bone marrow-derived dendritic cells was established. Dendritic cells were selected since they represent the most efficient antigen presenting cells and they play a key role by primary immune responses. In fact, they are the only cell type able to activate resting T cells initiating primary immune responses in vivo. Thus, dendritic cell cultures were treated with the tested moieties or LPS, which was used as a positive control. At different time intervals, samples were taken, stained with fluorescent-labeled antibodies specific for cellular markers critical for the antigen presenting capacities of dendritic cells, and analyzed by flow cytometry.
To test the stimulatory capacity of BPPCysAda on maturation and activation of bone marrow-derived DC, immature DC's were stimulated in vitro with BPPCysAda. Surface markers on CD11c+-gated DC were investigated by FACS analysis after 16 or 40 h pre-treatment.

[3] = system: peritoneal macrophages from C3H/HeJ mice; assay: Nitrogen monoxide release assay (macrophage activation); type: cell-based; details: 25 mM octylglucoside in first dilution step
Procedure: NO release of restimulated macrophages using different concentrations (serial dilutions) of the macrophage activator BPPcysGlyc4armPEG as adjuvant. As positive control, the NO release of macrophages in response to serial dilutions of Malp-2 and in response to 4armPEG molecules (negative control) are shown.
In brief, peritoneal macrophages from C3H/HeJ mice were used as the macrophage source. They were cultured in 96-well microtiter plates and stimulated simultaneously with rIFN-γ and a serial dilution of macrophage activator. Insofar as necessary (i.e. R-Malp-2/standard), the macrophage activators were dissolved in 25 mM octylglucoside in the first dilution step and then diluted further with medium. After an incubating time of 45-48 hours, the nitrate was reduced with nitrate reductase and the starting substance nitrogen monoxide was determined, as the sum of nitrate and nitrite, using Griess' reagent. 1 unit (U)/ml is defined as the dilution at which half-maximal stimulation takes place.

In the case of `Nc1ncnc2c1ncn2[C@@H]1O[C@@H]2COP(=O)(O)O[C@H]3[C@@H](O)[C@H](n4cnc5c(N)ncnc54)O[C@@H]3COP(=O)(O)O[C@H]2[C@H]1O` [c-diAMP], the antigen-specific antibody response [1] is reported as “strong antigen-specific antibody response”.

MALP-2 [reference compound] was tested, and the “differences in the expression of surface markers when concentration enhanced” value [2] was “No differences” and the “effect of adding a solubilizer (octylglucoside) on macrophage activation” value [3] was “required”.
